Assay results: ChEMBL document CHEMBL1132015, “Selective inactivation of protein tyrosine phosphatase PTP1B by sulfone analogue of naphthoquinone” (Bioorg Med Chem Lett, 1999)

Experiment: Inhibitory constant was determined against Protein tyrosine phosphatase (PTP) using the Kitz and Wilson method

- Ki: 3.5 µM
Structure (SMILES): O=C1C(CCl)=CS(=O)(=O)c2ccccc21
